Consider 108 molecules from a melting point compilation (Tetko et al.).

A value given as a limit tells only on which side of the number the result lay.

A word on the melting point: it is the temperature of the solid-liquid transition. In the case of `Nc1snnc1-c1ccccc1`, the melting point was 144 to 147 °C. The value for `O=C(O)C(F)(F)C(F)(F)C(F)(F)C(F)(F)C(F)(F)C(F)(F)C(F)(F)C(F)(F)C(F)(F)C(F)(F)F` was 97.9 to 100 °C; that for `O=C(Cl)c1csc(-c2cccc(Cl)c2Cl)n1` was 108 to 111 °C; that for `C=CCC(=O)N1CCN(C(=O)OCC2c3ccccc3-c3ccccc32)CC1` was 105 to 107 °C. The value for `CCCCc1ccc(/C=N/c2ccc(C(C)=O)cc2)cc1` was 83 to 93 °C. The value for `Clc1cc2c(cc1Cl)Oc1ccccc1O2` was 163 °C; that for `CCOP(=S)(OCC)Oc1nc(Cl)n(C(C)C)n1` was less than 25 °C. `O=P(O)(O)CCCCP(=O)(O)O` showed a melting point of 219 to 221 °C.

`O=C(O)/C=C/c1cc2c(cc1CC(=O)O)NC(=O)CC2` showed a melting point of 234 °C.

`C/C(Cl)=C/C(=O)O`: the melting point was determined as 61 °C. The value for `Nc1nc(N)c(N=O)c(N)n1` was 300 °C. For `Cc1c(N/N=C(/C(=O)c2cccc3ccccc23)S(=O)(=O)c2ccccc2)c(=O)n(-c2ccccc2)n1C`, the melting point turned out to be 110 °C.

For `Cc1ccc(C(c2ccc(C)o2)c2cc(I)cc(I)c2O)o1`, the melting point is 143 °C. On to `Cc1ccc(C(c2ccc(C)o2)c2ccccc2Br)o1`, for which the melting point is 57 °C. The value for `Cc1ccc(-c2onc(C(=O)c3ccc([N+](=O)[O-])cc3)c2S(=O)(=O)c2ccccc2)cc1` was 225 to 227 °C; that for `Clc1nc(Br)[nH]c1Cl` was 215 to 216 °C. The value for `CC(=O)N[C@H]1C(O)O[C@H](CO)[C@@H](O)[C@@H]1O` (stereo partly drawn) was 211 °C; that for `O=Cc1cc(F)c(O)cc1F` was 147 °C.

In turn, `C=COC=C` had a melting point of -101 °C.

Molecule `CC12CCC3C(CCC4=CC(=O)C=CC43O)C1CCC2=O` (stereo not drawn) displayed a melting point of 219 to 221 °C.

In turn, `COc1ccc(C(=O)C(O)c2ccc(OC)cc2)cc1` (stereo not drawn) had a melting point of 112 °C. The value for `O=C(O)CCn1c(=O)oc2ccccc21` was 126 to 128 °C; that for `FC(F)(F)c1nn(CN2CCN(Cn3nc(C(F)(F)F)n(N=Cc4ccccc4)c3=S)CC2)c(=S)n1N=Cc1ccccc1` was 333 °C. The value for `COC(=O)c1sc(N(C)C)c(C#N)c1N` was 240 to 243 °C; that for `CS(=O)(=O)Nc1cccc(C=O)c1` was 146 to 147 °C. The value for `CCCCCC(=O)Cl` was -87 °C; that for `CC(=O)C(=Nc1ccccc1)c1cc(C(=Nc2ccccc2)C(C)=O)c([N+](=O)[O-])cc1[N+](=O)[O-]` was 174 to 175 °C; that for `CN1CC(=O)NC1=N` was 255 °C. Regarding `Nc1noc2ccccc12`, the melting point fell in the range of 110 to 112 °C. The value for `COc1ccc2nc(NN)nnc2c1` was 238 to 240 °C; that for `COC(=O)c1cc2ccccc2c(O)c1C(=O)OC` was 105 °C. The value for `O=C(O)CCC(=O)c1ccc2c(c1)-c1cccc3cccc-2c13` was 208 °C; that for `CCCCCCCCCCCCCCCCOP(=O)(O)OCCCCCCCCCCCCCCCC` was 74.5 °C.

`O=C(NC(CO)(Cc1ccccc1)C(=O)O)c1ccccc1` (racemic): the melting point was in the range of 160 to 162 °C. The value for `FC(F)(F)C(F)(F)C(F)(F)I` was -95 °C. On to `O=C(O)COc1cccc(Cl)c1Cl`, for which the melting point turned out to be 174 °C. The value for `COc1ccc(-c2cc(C(F)(F)F)[nH]n2)cc1OC` was 150 to 156 °C; that for `CSc1c(C#N)c(N)nc2c(/N=N/c3ccc(C(=O)O)cc3)c(N)nn12` was 305 to 307 °C.

Regarding `CCNC(=O)NC(=O)C(C#N)=NOC`, the melting point came out at 161 °C. The value for `CC12CCC(O)C=C1CCC1C2CCC2(C)C(c3ccc(=O)oc3)CCC12O` (stereo not drawn) was 235 °C; that for `OCc1ccc(F)cc1Cl` was 44.5 °C; that for `COc1cccc(C2C(C(=O)OC(C)C)=C(C)NC(C)=C2C(=O)OC(C)C)c1O` was 196 °C. The value for `C/C(CCc1oc2ccccc2c1-c1ccc(C)o1)=N/O` was 104 to 105 °C; that for `CCCCCCC1CCCC1` was -73 °C; that for `COC(=O)CC(O)(CC(=O)OC)C(=O)OC` was 79.3 °C. In turn, `Clc1cc(Cl)cc(C2(CC(Cl)(Cl)Cl)CO2)c1` (stereo not drawn) showed a melting point of 42.8 °C. `Clc1ccc(-c2nnn[nH]2)cc1Cl`: the melting point stood at 161 °C. The value for `CC1(C)OC(=O)C2CCCCC21` (stereo not drawn) was 80 °C.

On to `Nc1cc(Cl)c(Cl)c(Cl)c1Cl`, for which the melting point was 118 to 119 °C. The value for `O=Cc1ccc(N2CCCCC2)cc1` was 62 to 63 °C; that for `OCc1ccccc1CN1CCOCC1` was 59 °C; that for `NC(=S)c1ccc(C2SCCS2)cc1` was 174 °C. The value for `O=C(c1ccccc1)C(c1ccccc1)c1cc(Cl)c([N+](=O)[O-])cc1[N+](=O)[O-]` (stereo not drawn) was 131 °C. The value for `N#C/C(=C\c1ccccc1)c1nc2ccccc2s1` was 105 °C; that for `O=[N+]([O-])CCO` was -80 °C; that for `Cc1cc2c(c(C)c1C)CC2` was 38 °C. The molecule `Cc1ccnc2c1ccc1c(C)ccnc12` returned a melting point of 194 °C.

Molecule `NNc1ccc(Br)cc1` came in with a melting point of 108 °C.

The molecule `Cc1cc(C)c(C2(C)CC(C(=NNC(N)=S)c3cc4ccccc4o3)C2)c(C)c1` (stereo not drawn) came in with a melting point of 258 to 259 °C. The value for `N#Cc1cc(F)cc(Br)c1` was 43 to 46 °C. The value for `CC(=O)Nc1c(Br)cc(Br)cc1C(=O)c1ccccc1` was 156 °C. The value for `O=C(O)Cc1cc(I)c(Oc2ccc(O)c(I)c2)c(I)c1` was 182 °C; that for `NC(=O)C1c2ccccc2CCc2ccccc21` was 194 °C.

In turn, `C=CCSc1sc(C(=O)OCC)c2c1C(=O)CCC2` registered a melting point of 57 to 60 °C. Turning to `N#CCS(=O)(=O)c1ccccc1`, the melting point was 112 °C.

With `N#Cc1nc[nH]c1C(N)=O`, the melting point lay in the range of 276 to 278 °C. In turn, `NNC(=S)NCc1ccccc1` displayed a melting point of 130 °C.

For the molecule `COc1ccc2c(c1)CCC2=O`, the melting point amounted to 109 °C. As to `CN1CC2CC(C1)c1cccc(=O)n1C2` (stereo not drawn), the melting point came out at 137 °C. Regarding `OCC(O)CC(F)(F)C(F)(F)C(F)(F)C(F)(F)C(F)(F)C(F)(F)C(F)(F)C(F)(F)F` (stereo not drawn), the melting point fell in the range of 114 to 116 °C. The value for `CC(C)(O)CC(C)(O)c1ccc(Cl)cc1` (stereo not drawn) was 76.5 °C; that for `COc1ccccc1-c1nnc2n1NC(c1ccccc1)S2` (stereo not drawn) was 208 °C; that for `Cc1ccc(NO)cc1` was 96 °C. The value for `Nc1ccc2c(c1)S(=O)(=O)C=C2` was 150 °C. The molecule `C#CC(O)COc1cccc(C(F)(F)F)c1` (stereo not drawn) registered a melting point of 32 °C. The value for `Cc1ccc(C)c(Cl)c1` was 1.6 °C; that for `COc1cc(CO)cc(Cl)c1O` was 117 °C. The value for `Cc1ccc(F)cc1` was -56 °C; that for `Cc1cc(C)c(-c2cc(C)[nH]n2)c(C)c1` was 128 to 130 °C. The value for `CN1C(CSCC(F)(F)F)Nc2cc(Cl)c(S(N)(=O)=O)cc2S1(=O)=O` (stereo not drawn) was 214 °C; that for `CN(C)CCOc1ccccc1C(=O)O` was 108 to 109 °C.

In turn, `CCOC(=O)C1=C(C)OC(N)=C(c2nc3ccccc3s2)C1c1ccc(Cl)cc1` (stereo not drawn) registered a melting point of 189 °C. The value for `COc1ccc(C2CNC(=O)C2)cc1OC1CCCC1` (stereo not drawn) was 127 to 133 °C; that for `CC(C)(CO)[N+](=O)[O-]` was 89.5 °C; that for `CCCCCCCCCCCC(=O)CCCC` was 37 °C. Molecule `COc1cccc(C(=O)C(=O)c2cccc(OC)c2)c1` came in with a melting point of 82 °C. The value for `Cc1ccc(-c2cc[nH]n2)cc1` was 82 to 86 °C; that for `Cc1nc2ccccn2c1C(=O)O` was 140 to 142 °C; that for `CC(O)(P(=O)(O)O)P(=O)(O)O` was 199 °C. Take `O=C(O)c1ccc2c(c1)OCCO2`: the melting point fell in the range of 133 to 137 °C.

Turning to `O=C1OC(c2ccccc2)=NC1=Cc1ccc(-c2ccccc2Br)o1`, the melting point is 159 to 160 °C.

`O=C1C(c2ccc(C3=[N+]([O-])c4cc([N+](=O)[O-])ccc4C3=O)cc2)=[N+]([O-])c2cc([N+](=O)[O-])ccc21` came in with a melting point of 294 °C.

Take `CCCC(=O)Oc1c[nH]c2ccc(Br)c(Cl)c12`: the melting point is 91 to 93 °C. The value for `Cc1nc(/C(C#N)=C\c2ccco2)sc1/N=N/c1ccccc1[N+](=O)[O-]` was 212 to 213 °C; that for `NNC(=O)Cc1ccccc1` was 115 to 117 °C. The value for `CC(=O)N1CCN(c2ccc(OCC3COC(Cn4ccnc4)(c4ccc(Cl)cc4Cl)O3)cc2)CC1` (stereo not drawn) was 146 °C; that for `Sc1ccc(Cl)cc1` was 61 °C; that for `C[Si](C)(C)O[Si](C)(C)O[Si](C)(C)O[Si](C)(C)O[Si](C)(C)O[Si](C)(C)O[Si](C)(C)C` was -78 °C. In turn, `CC1CN1` (stereo not drawn) had a melting point of -65 °C.

`CC(=O)C1(C)Cc2ccccc2C(=O)O1` (stereo not drawn) registered a melting point of 105 °C. `Cc1cccc(Br)c1C(=O)O` registered a melting point of 109 °C. The value for `CC(C)C(C)C=CC(C)C1CCC2C3=CC=C4CC(O)CCC4(C)C3CCC21C` (stereo not drawn) was 170 °C; that for `Cc1c(S(=O)(=O)Cl)cnn1-c1ccccc1` was 57 °C; that for `CC(=O)c1ccc(C(C)=O)c([N+](=O)[O-])c1` was 46 °C.

Molecule `CC(=O)Nc1nc(O)c2nc[nH]c2n1` showed a melting point of 260 °C. As for `CCN(CC)c1ccc([N+](=O)[O-])cc1`, the melting point was 77.5 °C. Take `N#CCC(=O)c1cccc(C(F)(F)F)c1`: the melting point was determined as 61 °C.

Consider `COC(=O)NCCc1ccccc1NC(C)=O`, for which the melting point was 107 °C.
